Experimental data as given in PubChem BioAssay AID1919014 (Molecular Pharmacology Branch, DTP, NCI, 2023).

Tested on: NCI-H1341 complex spheroids, percent test/control
Assay: Anticancer human tumor NCI-H1341 cell line growth inhibition [AhR];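 note: spheroids exposed to agents for seven days before readout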
Conditions: for IC50: curve of first compound; for viability, T/C: stronger effect = lower value; active = viability on the fitted dose curve at most 10% of control; inactive = the rest
Summary of the method: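 Spheroids combined tumor cells with HUVEC endothelial cells and human MSCs as stroma. AhR antagonists were paired with standard or investigational drugs, each dosed in half-log steps down from near clinical Cmax, or from 10 microM where Cmax was unknown.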

Nc1ncn(C2CC(O)C(CO)S2)c(=O)n1 (stereo not given) + CC(CO)NC(=O)c1cc(-c2ccc(Cl)cc2)nn(-c2cnn(C)c2)c1=O
0.271 µM: IC50 (second compound 0.1 µM)
0.214 µM: IC50 (second compound 3.16 µM)
0.223 µM: IC50 (second compound 1 µM)
inactive: viability, T/C (second compound 0.1 µM, first compound 0.000949 µM) 89.1% | viability, T/C (second compound 0.1 µM, first compound 0.003 µM) 94.3% | viability, T/C (second compound 0.1 µM, first compound 0.00949 µM) 91.2% | viability, T/C (second compound 0.1 µM, first compound 0.03 µM) 89.3% | viability, T/C (second compound 0.1 µM, first compound 0.0949 µM) 63.6% | viability, T/C (second compound 0.1 µM, first compound 0.3 µM) 48.7% | viability, T/C (second compound 0.316 µM, first compound 0.000949 µM) 94.6% | viability, T/C (second compound 0.316 µM, first compound 0.003 µM) 91.5% | viability, T/C (second compound 0.316 µM, first compound 0.00949 µM) 84.5% | viability, T/C (second compound 0.316 µM, first compound 0.03 µM) 89.8% | viability, T/C (second compound 0.316 µM, first compound 0.0949 µM) 78.3% | viability, T/C (second compound 0.316 µM, first compound 0.3 µM) 39.2% | viability, T/C (second compound 1 µM, first compound 0.000949 µM) 75.3% | viability, T/C (second compound 1 µM, first compound 0.003 µM) 105% | viability, T/C (second compound 1 µM, first compound 0.00949 µM) 91.8% | viability, T/C (second compound 1 µM, first compound 0.03 µM) 79.6% | viability, T/C (second compound 1 µM, first compound 0.0949 µM) 76.2% | viability, T/C (second compound 1 µM, first compound 0.3 µM) 41.3% | viability, T/C (second compound 3.16 µM, first compound 0.000949 µM) 86% | viability, T/C (second compound 3.16 µM, first compound 0.003 µM) 96.1% | viability, T/C (second compound 3.16 µM, first compound 0.00949 µM) 85.6% | viability, T/C (second compound 3.16 µM, first compound 0.03 µM) 82.7% | viability, T/C (second compound 3.16 µM, first compound 0.0949 µM) 69.2% | viability, T/C (second compound 3.16 µM, first compound 0.3 µM) 42% | viability, T/C (second compound 10 µM, first compound 0.000949 µM) 73.3% | viability, T/C (second compound 10 µM, first compound 0.003 µM) 73.1% | viability, T/C (second compound 10 µM, first compound 0.00949 µM) 79.1% | viability, T/C (second compound 10 µM, first compound 0.03 µM) 69.2% | viability, T/C (second compound 10 µM, first compound 0.0949 µM) 63.6% | viability, T/C (second compound 10 µM, first compound 0.3 µM) 46%
0.234 µM: IC50 (second compound 10 µM)
0.22 µM: IC50 (second compound 0.316 µM)

Nc1ccccc1NC(=O)c1ccc(CNC(=O)OCc2cccnc2)cc1 + CC(CO)NC(=O)c1cc(-c2ccc(Cl)cc2)nn(-c2cnn(C)c2)c1=O
active: viability, T/C (second compound 0.1 µM, first compound 3.16 µM) 6.51% | viability, T/C (second compound 0.1 µM, first compound 10 µM) 0.25% | viability, T/C (second compound 0.316 µM, first compound 3.16 µM) 6.91% | viability, T/C (second compound 0.316 µM, first compound 10 µM) 0.6% | viability, T/C (second compound 1 µM, first compound 3.16 µM) 8.93% | viability, T/C (second compound 1 µM, first compound 10 µM) 0.42% | viability, T/C (second compound 3.16 µM, first compound 3.16 µM) 6.39% | viability, T/C (second compound 3.16 µM, first compound 10 µM) 0.79% | viability, T/C (second compound 10 µM, first compound 3.16 µM) 4.04% | viability, T/C (second compound 10 µM, first compound 10 µM) 0.25%
0.204 µM: IC50 (second compound 0.316 µM)
0.144 µM: IC50 (second compound 0.1 µM)
0.0523 µM: IC50 (second compound 10 µM)
0.133 µM: IC50 (second compound 3.16 µM)
inactive: viability, T/C (second compound 0.1 µM, first compound 0.0316 µM) 66.7% | viability, T/C (second compound 0.1 µM, first compound 0.1 µM) 58.1% | viability, T/C (second compound 0.1 µM, first compound 0.316 µM) 34.4% | viability, T/C (second compound 0.1 µM, first compound 1 µM) 14.8% | viability, T/C (second compound 0.316 µM, first compound 0.0316 µM) 74.3% | viability, T/C (second compound 0.316 µM, first compound 0.1 µM) 60.1% | viability, T/C (second compound 0.316 µM, first compound 0.316 µM) 45% | viability, T/C (second compound 0.316 µM, first compound 1 µM) 15.6% | viability, T/C (second compound 1 µM, first compound 0.0316 µM) 60.9% | viability, T/C (second compound 1 µM, first compound 0.1 µM) 64% | viability, T/C (second compound 1 µM, first compound 0.316 µM) 40% | viability, T/C (second compound 1 µM, first compound 1 µM) 16.7% | viability, T/C (second compound 3.16 µM, first compound 0.0316 µM) 63.4% | viability, T/C (second compound 3.16 µM, first compound 0.1 µM) 57.3% | viability, T/C (second compound 3.16 µM, first compound 0.316 µM) 31.3% | viability, T/C (second compound 3.16 µM, first compound 1 µM) 12.1% | viability, T/C (second compound 10 µM, first compound 0.0316 µM) 56.6% | viability, T/C (second compound 10 µM, first compound 0.1 µM) 41.3% | viability, T/C (second compound 10 µM, first compound 0.316 µM) 26.4% | viability, T/C (second compound 10 µM, first compound 1 µM) 12.6%
0.187 µM: IC50 (second compound 1 µM)
